Test results from US20210293788A1, “METHOD FOR IDENTIFYING A CHEMICAL COMPOUND OR AGENT INDUCING UBIQUITINATION OF A PROTEIN OF INTEREST” (CeMM - Forschungszentrum fur Molekulare Medizin GmbH, priority 2018, published 2021).
“Also recorded” adds a separate entry of the source.

How the values were obtained:
KBM7 cells = assay: Dose-ranging cellular viability assays in neddylation-impaired isogenic KBM7 cells; assay type: cell-based, human; settings: for Cytotoxic activity / sensitivity in COPS8- or CAND1-modified cells: KBM7 cells modified in COPS8 or CAND1 versus non-modified control
Procedure: KBM7 cells mutated for five core genes were isolated and the underlying CRISPR-induced mutations were truncations leading to full knockouts (CAND1) or hypomorphic alleles (UBE2M, COPS8, COPS7B, GPS1). […] The observable shift in efficacy was at least 10-fold and up to 1000-fold, thus providing excellent signal to noise ratios. In sum, neddylation-impaired (NEDD^mut) cell line can be applied to find novel, yet uncharacterized MGs.
This is further exemplified when said cells are treated with the compound CC-885 (a molecular glue that reprograms the substrate receptor cereblon/CRBN to degrade GSPT1), or the PROTAC® compound THAL-SNS-032 (known to reprogram the substrate receptor cereblon/CRBN to degrade the cyclin dependent kinase 9, CDK9) (both see appended FIG. 22).
However, not for every cullin RING ligase (CRL), modifications of the COP9 signalosome subunit 8 (COPS8) or CAND1 (Cullin-associated NEDD8-dissociated protein 1; a substrate receptor exchange factor) lead to an ensuing destabilization via auto-degradation. An example for this is the substrate receptor VHL(von-Hippel-Lindau), which is part of the CRL2^VHL ligase complex. […] Therefore, measuring differential sensitivity of cells manipulated to contain altered neddylation states to a molecular glue/PROTAC® compound is a feasible surrogate to measure whether the substrate receptor that is reprogrammed by said molecular glue/PROTAC® undergoes destabilization/auto-degradation upon altering the neddylation states.

CRBN [1] = molecular target: T1, CRBN (Homo sapiens, UniProt Q96SW2); assay: Re-stabilization of CRBN by small-molecule degraders after CSN5i-3 pretreatment (western blot); assay type: cell-based; settings: WT cells pretreated 2 h with DMSO, 25, 100 or 500 nM CSN5i-3, then 500 nM compound
T1 construct: endogenous in cells; host or cells: wild-type cells (KBM7 by context)
T1 sequence (Q96SW2 whole entry): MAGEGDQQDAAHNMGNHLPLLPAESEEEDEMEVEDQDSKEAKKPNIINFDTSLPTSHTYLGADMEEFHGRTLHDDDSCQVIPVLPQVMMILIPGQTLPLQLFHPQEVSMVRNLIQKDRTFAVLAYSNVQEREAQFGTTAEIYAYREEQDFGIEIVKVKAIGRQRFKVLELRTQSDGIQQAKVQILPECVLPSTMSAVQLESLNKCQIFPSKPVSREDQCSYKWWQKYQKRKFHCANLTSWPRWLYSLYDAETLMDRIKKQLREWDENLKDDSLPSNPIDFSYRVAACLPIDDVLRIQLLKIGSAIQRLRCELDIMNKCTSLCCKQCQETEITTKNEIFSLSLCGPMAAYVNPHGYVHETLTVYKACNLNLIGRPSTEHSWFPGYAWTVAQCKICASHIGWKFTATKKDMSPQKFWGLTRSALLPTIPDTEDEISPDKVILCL
Procedure: To explore the re-stabilization of SR upon ligand treatment, WT cells were pretreated with different doses of CSN5i-3 for 2h to firstly induce SR autodegradation. As a proof of principle, the SR CRBN was used, and the autodegradation by WB was checked (FIG. 2B-D).

CRBN [2] = molecular target: T1, CRBN; assay: Stabilization of CRBN by CC-885 pretreatment followed by CSN5i-3 (western blot); assay type: cell-based; settings: 125 nM CC-885 for 15 or 30 min before 100 nM CSN5i-3 for 2 hours
Procedure: Cells were first pretreated with the small-molecule (CC-885) known to recruit a new substrate (GSPT1=Eukaryotic peptide chain release factor GTP-binding subunit ERF3A) to the substrate receptor CRBN of the CRL4^CRBN ligase. Pre-treatment was conducted for either 15 or 30 minutes. Afterwards, cells were treated with the CSN (COP9 signalosome) inhibitor (CNS5i-3) for 2 hours. […] This was shown in FIG. 3 by comparing lane 2 of the CRBN blot (pre-treatment with DMSO/vehicle control) to lanes 4 (15 min pre-treatment) and lane 6 (30 min pre-treatment) of the same western blot. The same blot also documents that the present invention provides for means and methods how to determine the neddylation status of cullins constituting CRLs. As evident from FIG. 3, cells comprising a normal neddylation status or a steady-state neddylation status show two bands corresponding to a non-neddylated and a neddylated cullin, respectively. Average increase of neddylated to non-neddylated approximately 9 kDa. […]

CRBN [3] = assay: CRBN levels by western blot after CSN5i-3 treatment (autodegradation); assay type: cell-based, human
Excerpt: As a first approach, the levels of cereblon (CRBN), the SR of the CRL4^CRBN E3 ligase machinery, were checked by western blot (WB) in the mutant backgrounds. A strong decrease in CRBN levels in the COPS8 (COP9 signalosome complex subunit 8)-mutant cells was observed, and a less prominent downregulation in the CAND1-deficient cells (FIG. 1B). […] The CSN-impaired condition was used as a focus as this condition was sought to chemically mimic the genetic mutants. […] CRBN destabilization following CSN5i-3 treatment were rescued in CUL4A-deficient cells (FIG. 1E) or in cells lacking UBE2G1 (ubiquitin-conjugating enzyme E2 G1), a E2 ubiquitin-conjugating enzyme previously related to target degradation via the CRL4^CRBN ligase (FIG. 1F).

[4] = system: CRL substrate receptors (SRs) in KBM7 cells; assay: Global expression proteomics of substrate receptors after CSN5i-3 treatment; assay type: cell-based, human; settings: 1 μM, 8 h, versus DMSO
Procedure: In order to survey in an unbiased manner the subset of SRs undergoing autodegradation, global expression proteomics was applied to the different genetic backgrounds: WT, COPS8-mutant and CAND1-deficient KBM7 cells. In addition, expression proteomics following cellular treatment with CSN5i-3 was employed (1 μM, 8 h) (FIG. 1G-I).

DCAF15 = molecular target: T2, DCAF15 (Homo sapiens, UniProt Q66K64); assay: DCAF15 HiBit/LgBit luciferase assay (knock-in or ectopic, live-cell or lytic detection); assay type: cell-based
T2 construct: expressed in transfected cells
T2 sequence (Q66K64 whole entry): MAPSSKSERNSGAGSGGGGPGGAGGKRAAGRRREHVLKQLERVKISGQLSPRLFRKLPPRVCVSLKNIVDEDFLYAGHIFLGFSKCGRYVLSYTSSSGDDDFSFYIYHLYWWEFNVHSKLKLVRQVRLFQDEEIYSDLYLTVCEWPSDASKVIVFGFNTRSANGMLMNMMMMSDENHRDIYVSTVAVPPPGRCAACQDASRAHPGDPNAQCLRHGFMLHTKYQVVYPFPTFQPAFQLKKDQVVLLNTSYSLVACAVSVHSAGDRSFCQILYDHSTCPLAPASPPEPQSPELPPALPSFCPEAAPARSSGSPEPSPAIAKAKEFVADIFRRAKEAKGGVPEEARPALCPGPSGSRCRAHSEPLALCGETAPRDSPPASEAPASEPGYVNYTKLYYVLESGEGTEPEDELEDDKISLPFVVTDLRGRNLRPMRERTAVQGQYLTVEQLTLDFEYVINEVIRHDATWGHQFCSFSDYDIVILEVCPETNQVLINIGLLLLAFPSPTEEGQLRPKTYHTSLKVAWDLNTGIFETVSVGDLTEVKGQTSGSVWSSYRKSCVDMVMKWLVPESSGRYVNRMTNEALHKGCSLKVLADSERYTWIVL
Procedure: Generation of HiBit DCAF15 knock-in cells: HEK293t WT cells at 70-80% confluency were transiently transfected in a 6 well plate with a mix of 3 ug Cas9-sgRNA vector (PX458, addgene #48138, containing sgRNA [NT]), 6 ug of single stranded oligonucleotide donor (ssOND, 20 bp homology flanking the cut site) and 3.6 ug polyethylenimine (FIGS. 10 and 12). 72 hrs post-transfection cells were sorted (SH800 Cell sorter, SONY) for GFP positive cells and recovered for 24 hrs in media. Cells were subsequently seeded at a limiting dilution to generate single clones. Clones were tested after outgrowth for HiBit expression by seeding clonal cells in a black clear bottom 384 well plate and adding Nano-Glo HiBit Lytic buffer (Promega, N3030) reconstituted with recombinant LgBit and Nano-Glo HiBit Lytic Substrate in a 1:1 ratio. HiBit-expressing clones were validated by western blotting and detection of luciferase signal (Promega, N2410) at the correct size. For live cell luciferase detection (FIGS. 11 and 13) 7000 HEK293t cells with a HiBit knock-in at the N-terminus of DCAF15 and stable ectopic expression of LgBit were seeded in 10 uL per well into a black, clear-bottom 384 well plate (Corning, #3764) and incubated over night. 20 uL of media containing 1× Endurazine (Promega, N2570) was added to each well and incubated for 1 hour followed by a baseline luciferase measurement using an EnVision plate reader (Perkin Elmer). Subsequently CSN5i-3 or an equal volume of DMSO was added in 10 uL of media to a final concentration of 500 nM in the assay volume of 40 uL. Luciferase signal was measured hourly for 24 hours. For lytic HiBit detection (FIGS. 11 and 14) 10000 cells were seeded in 10 uL per well into a black clear bottom 384 well plate. After recovery cells were treated by addition of iCSN5-3 or an equal volume of DMSO in 10 uL of media to the cells. After the indicated treatment time cells were lysed by adding 20 uL Nano-Glo HiBit Lytic buffer (Promega, N3030) reconstituted with recombinant LgBit and Nano-Glo HiBit Lytic Substrate. Luciferase signal of each well was normalized to the mean DMSO luciferase signal yielding fold-change over DMSO. Luciferase signal was detected essentially as stated for FIG. 13 with the exception that indisulam (Sigma-Aldrich, SML1225) was added together with CSN5i-3 to cells in 10 uL of media to reach the indicated final concentration (FIG. 15). Luciferase signal of each well and timepoint was normalized to the mean DMSO luciferase signal yielding fold-change over DMSO. […] Luciferase signal was detected essentially as stated for FIG. 15 with the exception that indisulam and dCEMM.1 were added together with iCSN5-3 to cells in the 10 uL treatment to a final concertation of 10 uM (FIG. 17). Luciferase signal of each well and timepoint was normalized to the mean DMSO luciferase signal yielding fold-change over DMSO.

CRBN [5] = molecular target: T1, CRBN; assay: CRBN HiBit bioluminescence assay in COPS8 knock-out cells (Example 2); assay type: cell-based; settings: 4 hours of compound treatment
Procedure: Afterwards, CRISPR/Cas9 is used to knock-out the CSN (COP9 signalosome) subunit COPS8 (COP9 signalosome complex subunit 8). Ensuing loss of CRBN HiBit is assayed via immunoblot and loss of bioluminescence. […] After 4 hours of compound treatment, CRBNHiBit levels are assayed via bioluminescence by adding the detection reagent, which consists of a lysis buffer and recombinant LgBit protein. Within 10 minutes after addition of the detection reagent, luminescence is read with a standard plate reader, and is a proxy for drug-induced changes in CRBN levels.

In the case of `Cc1ncsc1-c1ccc([C@H](C)NC(=O)[C@@H]2C[C@@H](O)CN2C(=O)[C@@H](NC(=O)COCCCOCCNC(=O)C[C@@H]2N=C(c3ccc(Cl)cc3)c3c(sc(C)c3C)-n3c(C)nnc32)C(C)(C)C)cc1` [ARV-771], the “Cytotoxic activity / sensitivity in COPS8- or CAND1-modified cells” value (“Cytotoxic activity / sensitivity” below) (KBM7 cells) is reported as “sensitivity to ARV-771; also recorded: do not display an altered sensitivity”.

With `Cc1ccc(NC(=O)NCc2ccc3c(c2)CN(C2CCC(=O)NC2=O)C3=O)cc1Cl` (stereo not drawn) [CC-885] the “Cytotoxic activity / sensitivity” value (KBM7 cells) was “reduced activity; also recorded: lose their cytotoxic activity”, the “CRBN stabilization (western blot)” value (CRBN [1]) was “time-dependent stabilization of CRBN; also recorded: CRBN was stabilized upon CC-885 treatment in cells treated with DMSO, 25 nM, 100 nM and 500 nM CSN5i-3” and the “CRBN stabilization (western blot)” value (CRBN [2]) was “protects from CRBN auto-degradation; also recorded: CRBN was stabilized upon CC-885 treatment in the presence of CSN5i-3”.

With `CC(C)n1nc(C(F)F)cc1C(=O)Nc1ccc([C@H]2[C@@H](O)CCCc3cncn32)c(-c2ccccc2)c1` [CSN5i-3] the “CRBN level (western blot) after CSN5i-3” value (CRBN [3]; CUL4A-deficient cells (sgRNA targeting CUL4A)) was “Downregulation of CRBN is rescued”, the “CRBN level (western blot) after CSN5i-3” value (CRBN [3]; cells lacking UBE2G1 (sgRNA), 100 nM CSN5i-3, 0, 2, 4 and 6 hours) was “rescued in cells treated with two sgRNAs targeting UBE2G1” and the “CRBN level (western blot)” value (CRBN [3]; cells treated with DMSO, MLN4924 or CSN5i-3) was “recapitulate CRBN downregulation; also recorded: Downregulation of CRBN is recapitulated”. The “CRBN abundance (expression proteomics)” value [4] was “Downregulation of CRBN”, the “Substrate receptors destabilized (expression proteomics)” value [4] was “only affected a subset of the SRs associated to each of the cullins” and the “DCAF15 level (luciferase signal) after CSN5i-3” value (“DCAF15 level (luciferase signal)” for short) (DCAF15; live cells, HiBit-HA knock-in at DCAF15 locus, 500 nM) was “DCAF15 destabilization”. For the same molecule, the “DCAF15 level (luciferase signal)” value (DCAF15; lytic detection, HiBit-HA knock-in at DCAF15 locus) was “DCAF15 destabilization” and the “DCAF15 level (luciferase signal)” value (DCAF15; lytic detection, ectopic overexpression of HiBit-HA-DCAF15) was “DCAF15 destabilization”.

With `CC(C)(C)c1cnc(CSc2cnc(NC(=O)C3CCN(CC(=O)NCCOCCOCCOCCNc4cccc5c4C(=O)N(C4CCC(=O)NC4=O)C5=O)CC3)s2)o1` (stereo not drawn) [THAL-SNS-032] the “Cytotoxic activity / sensitivity” value (KBM7 cells) was “reduced activity” and the “CRBN stabilization (western blot)” value (CRBN [1]; listed as SNS-THAL-032) was “time-dependent stabilization of CRBN; also recorded: CRBN was stabilized upon SNS-THAL-032 treatment in cells treated with DMSO, 25 nM and 100 nM CSN5i-3”.

`Cc1sc2c(c1C)C(c1ccc(Cl)cc1)=N[C@@H](CC(=O)NCCCCCCCCNC(=O)COc1cccc3c1C(=O)N(C1CCC(=O)NC1=O)C3=O)c1nnc(C)n1-2` (stereo partly drawn) [dBET6] was tested, and the “Cytotoxic activity / sensitivity” value (KBM7 cells) was “reduced activity; also recorded: lose their cytotoxic activity”, the “Resistance of mutant cells in cellular viability assay” value (KBM7 cells; KBM7 cells mutated in CAND1, UBE2M, COPS8, COPS7B or GPS1 versus wild type) was “caused resistance” and the “CRBN stabilization (western blot)” value (CRBN [1]) was “time-dependent stabilization of CRBN; also recorded: CRBN was stabilized upon dBET6 treatment in cells treated with DMSO, 25 nM and 100 nM CSN5i-3”. The “CRBN HiBit levels (bioluminescence)” value (CRBN [5]) was “quick stabilization of CRBN HiBit levels”.
